In the RepoRT retention time repository (doi:10.1016/j.scitotenv.2015.08.078):

Test: RP, Waters ACQUITY UPLC BEH C18, 100 × 2.1 mm, 1.7 µm, 0.3 mL/min, estimated dead time 0.73 min; A: water + 0.1% formic acid, pH 3; B: methanol + 0.1% formic acid, pH 3; gradient (min/%B) 0/10 14/90 16/90 18/10
Conditions: stereoisomer not certain

Compound | LC retention time [min]
COc1cc(OC)nc(NC(=O)NS(=O)(=O)c2ncccc2C(F)(F)F)n1 [Flazasulfuron] | 7.14
CCCCOC(=O)C(C)Oc1ccc(Oc2ccc(C(F)(F)F)cn2)cc1 (stereo not drawn) [Fluaziflop-P-butyl] | 13.1
O=C(NC(=O)c1c(F)cccc1F)Nc1ccc(CON=C(c2ccc(Cl)cc2)C2CC2)cc1 [Flucycloxuron] | 13.4
N#Cc1c[nH]cc1-c1cccc2c1OC(F)(F)O2 [Fludioxonil] | 10.1
O=C(NC(=O)c1c(F)cccc1F)Nc1ccc(Oc2ccc(C(F)(F)F)cc2Cl)cc1F [Flufenoxuron] | 13.5
CC1CCc2cc(F)cc3c(=O)c(C(=O)O)cn1c23 (stereo not drawn) [Flumequine] | 7.49
CC1CC2C3CC(F)C4=CC(=O)C=CC4(C)C3(F)C(O)CC2(C)C1(O)C(=O)CO (stereo not drawn) [Flumethasone] | 9.72
Cc1c(Nc2ncccc2C(=O)O)cccc1C(F)(F)F [Flunixin] | 9.31
CN(C)C(=O)Nc1cccc(C(F)(F)F)c1 [Fluomethuron] | 8.25
O=c1c2cc(F)ccc2nc(-n2cncn2)n1-c1ccc(Cl)cc1Cl [Fluquinconazole] | 10.7
Cn1cc(-c2ccccc2)c(=O)c(-c2cccc(C(F)(F)F)c2)c1 [Fluridone] | 9.63
Nc1c(Cl)c(F)nc(OCC(=O)O)c1Cl [Fluroxypyr] | 7.71
C[Si](Cn1cncn1)(c1ccc(F)cc1)c1ccc(F)cc1 [Flusilazole] | 11.4
CC(C)Oc1cccc(NC(=O)c2ccccc2C(F)(F)F)c1 [Flutolanil] | 10.5
OC(Cn1cncn1)(c1ccc(F)cc1)c1ccccc1F (stereo not drawn) [Flutriafol] | 8.93
O=C(Nc1ccccc1)Nc1ccnc(Cl)c1 [Forchlorfenuron] | 8.95
CNC(=O)Oc1cccc(N=CN(C)C)c1 [Formetanate] | 2.06
CCOP(=O)(SC(C)CC)N1CCSC1=O (stereo not drawn) [Fosthiazate] | 8.33
c1coc(-c2nc3ccccc3[nH]2)c1 [Fuberidazole] | 6.61
CCCCC(C)C(OC(=O)CC(CC(=O)O)C(=O)O)C(CC(C)CC(O)CCCCC(O)CC(O)C(C)N)OC(=O)CC(CC(=O)O)C(=O)O (stereo not drawn) [Fumonisin B1] | 9.48
CCCCC(C)C(OC(=O)CC(CC(=O)O)C(=O)O)C(CC(C)CCCCCCC(O)CC(O)C(C)N)OC(=O)CC(CC(=O)O)C(=O)O (stereo not drawn) [Fumonisin B2] | 11

Compound | LC retention time [min]
COC(=O)C(C)N(C(=O)c1ccco1)c1c(C)cccc1C (stereo not drawn) [Furalaxyl] | 10
O=C1OC(CN2CCOCC2)CN1N=Cc1ccc([N+](=O)[O-])o1 (stereo not drawn) [Furaltadone] | 2.64
CCCCOC(=O)N(C)SN(C)C(=O)Oc1cccc2c1OC(C)(C)C2 [Furathiocarb] | 12.8
O=C1OCCN1N=Cc1ccc([N+](=O)[O-])o1 [Furazolidone] | 2.96
NS(=O)(=O)c1cc(C(=O)O)c(NCc2ccco2)cc1Cl [Furosemide] | 6.6
Cn1c([N+](=O)[O-])cnc1CO [HMMNI (Hydroxy Dimetridazole)] | 2.23
CC(=O)OCC12CC(OC(=O)CC(C)C)C(C)=CC1OC1C(O)C(O)C2(C)C12CO2 (stereo not drawn) [HT-2 Toxin] | 7.95
CC(C)(C)N(NC(=O)c1ccc(Cl)cc1)C(=O)c1ccccc1 [Halofenozide] | 9.91
COC(=O)c1c(Cl)nn(C)c1S(=O)(=O)NC(=O)Nc1nc(OC)cc(OC)n1 [Halosulfuron methyl] | 7.16
CCOCCOC(=O)C(C)Oc1ccc(Oc2ncc(C(F)(F)F)cc2Cl)cc1 (stereo not drawn) [Haloxyfop-2-ethoxyethyl] | 13.1
COC(=O)C(C)Oc1ccc(Oc2ncc(C(F)(F)F)cc2Cl)cc1 (stereo not drawn) [Haloxyfop-methyl] | 12.6
CC(Oc1ccc(Oc2ncc(C(F)(F)F)cc2Cl)cc1)C(=O)O (stereo not drawn) [Haloxyfop] | 11.8
COP(=O)(OC)OC1=C(Cl)C2C=CCC12 (stereo not drawn) [Heptenophos] | 9.33
CC(=O)Oc1ccc2c3c1OC1C(OC(C)=O)C=CC4C(C2)N(C)CCC341 (stereo not drawn) [Heroin] | 5.32
CCCCC(O)(Cn1cncn1)c1ccc(Cl)cc1Cl (stereo not drawn) [Hexaconazole] | 12
O=C(NC(=O)c1c(F)cccc1F)Nc1cc(Cl)c(OC(F)(F)C(F)F)c(Cl)c1 [Hexaflumuron] | 12.6
CN(C)c1nc(=O)n(C2CCCCC2)c(=O)n1C [Hexazinone] | 7.56
CCC(c1ccc(O)cc1)C(CC)c1ccc(O)cc1 (stereo not drawn) [Hexestrol] | 11.3
CC1C(c2ccc(Cl)cc2)SC(=O)N1C(=O)NC1CCCCC1 (stereo not drawn) [Hexythiazox] | 14.2
CC1(C)CN=C(NN=C(C=Cc2ccc(C(F)(F)F)cc2)C=Cc2ccc(C(F)(F)F)cc2)NC1 [Hydramethylnon] | 12.8
CC12CCC(=O)C=C1CCC1C2C(O)CC2(C)C1CCC2(O)C(=O)CO (stereo not drawn) [Hydrocortisone] | 8.53

Compound | LC retention time [min]
Cn1c([N+](=O)[O-])cnc1C(C)(C)O [Hydroxyipronidazole (IPZOH)] | 4.6
CC(C)(CO)NCC(O)c1cc(Cl)c(N)c(Cl)c1 (stereo not drawn) [Hydroxymethyl clenbuterol] | 4.17
O=[N+]([O-])c1cnc(CO)n1CCO [Hydroxymetronidazole (MNZOH)] | 1.9
CC(C)Cc1ccc(C(C)C(=O)O)cc1 (stereo not drawn) [Ibuprofen] | 12.4
C=CCOC(Cn1ccnc1)c1ccc(Cl)cc1Cl (stereo not drawn) [Imazalil] | 9.14
COCc1cnc(C2=NC(C)(C(C)C)C(=O)N2)c(C(=O)O)c1 (stereo not drawn) [Imazamox] | 3.21
CC(C)C1(C)N=C(c2nc3ccccc3cc2C(=O)O)NC1=O (stereo not drawn) [Imazaquin] | 5.22
Clc1ccc(CSC(Cn2cncn2)=Nc2ccc(Cl)cc2Cl)cc1 [Imibenconazole] | 13
O=[N+]([O-])/N=C1\NCCN1Cc1ccc(Cl)nc1 [Imidacloprid] | 4.63
CC(C)OP(=O)(OC(C)C)SCc1ccccc1 [Iprobenfos] | 11.5
CC(C)NC(=O)N1CC(=O)N(c2cc(Cl)cc(Cl)c2)C1=O [Iprodione] | 11.9
CC(C)c1ncc([N+](=O)[O-])n1C [Ipronidazole (IPZ)] | 5.42
CCCCC1=NC2(CCCC2)C(=O)N1Cc1ccc(-c2ccccc2-c2nn[nH]n2)cc1 [Irbesartan] | 10.4
CCOP(=S)(OCC)Oc1nc(Cl)n(C(C)C)n1 [Isazophos] | 10.8
CCOP(=S)(NC(C)C)Oc1ccccc1C(=O)OC(C)C (stereo not drawn) [Isofenphos] | 12.1
CC(C)OC(=O)C(C(=O)OC(C)C)=C1SCCS1 [Isoprothiolane] | 10.4
CC(C)c1ccc(NC(=O)N(C)C)cc1 [Isoproturon] | 9.6
CCC(C)(CC)c1cc(NC(=O)c2c(OC)cccc2OC)on1 [Isoxaben] | 10.4
CCC(C)C1OC2(CCC1C)CC1CC(CC=C(C)C(OC3CC(OC)C(OC4CC(OC)C(O)C(C)O4)C(C)O3)C(C)C=CC=C3COC4C(O)C(C)=CC(C(=O)O1)C34O)O2 (stereo not drawn) [Ivermectin] | 16.3
COC1C(OC(C)=O)CC(=O)OC(C)CC=CC=CC(O)C(C)CC(CC=O)C1OC1OC(C)C(OC2CC(C)(O)C(OC(=O)CC(C)C)C(C)O2)C(N(C)C)C1O (stereo not drawn) [Josamycin] | 11.4
CNC1(c2ccccc2Cl)CCCCC1=O (stereo not drawn) [Ketamine] | 4.88

Compound | LC retention time [min]
CC(C(=O)O)c1cccc(C(=O)c2ccccc2)c1 (stereo not drawn) [Ketoprofen] | 10.3
CON=C(C(=O)OC)c1ccccc1COc1ccccc1C [Kresoxim-methyl] | 11.7
O=c1[nH]c2c(c(=O)n1C1CCCCC1)CCC2 [Lenacil] | 8.9
CN(C)c1ccc(C(c2ccccc2)c2ccc(N(C)C)cc2)cc1 [Leucomalachite green] | 10.4
CCCC1CC(C(=O)NC(C(C)O)C2OC(SC)C(O)C(O)C2O)N(C)C1 (stereo not drawn) [Lincomycin] | 3.56
CON(C)C(=O)Nc1ccc(Cl)c(Cl)c1 [Linuron] | 10.3
O=C1Nc2ccc(Cl)cc2C(c2ccccc2Cl)=NC1O (stereo not drawn) [Lorazepam] | 9.87
O=C(NC(=O)c1c(F)cccc1F)Nc1cc(Cl)c(OC(F)(F)C(F)C(F)(F)F)cc1Cl (stereo not drawn) [Lufenuron] | 9.67
CC(N)Cc1ccc2c(c1)OCO2 (stereo not drawn) [MDA] | 3.62
CCNC(C)Cc1ccc2c(c1)OCO2 (stereo not drawn) [MDEA] | 4.27
CNC(C)Cc1ccc2c(c1)OCO2 (stereo not drawn) [MDMA] | 3.79
CC(C)(C)NCC(O)c1cc(Cl)c(N)c(C(F)(F)F)c1 (stereo not drawn) [Mabuterol] | 6.05
COC1CC(OC2CC(C3OC(C)(O)C(C)CC3C)OC2C2(C)CCC(C3(C)CCC4(CC(O)C(C)C(C(C)C5OC(O)(CC(=O)O)C(C)C(OC)C5OC)O4)O3)O2)OC(C)C1OC (stereo not drawn) [Maduramicine] | 15.7
CCOC(=O)CC(SP(=S)(OC)OC)C(=O)OCC (stereo not drawn) [Malathion] | 11.6
CCC(C)(C)NCC(O)c1cc(Cl)c(N)c(C(F)(F)F)c1 (stereo not drawn) [Mapenterol] | 7.01
CN1CCN(c2c(F)cc3c(=O)c(C(=O)O)cn4c3c2OCN4C)CC1 [Marbofloxacin] | 2.84
CN(C(=O)COc1nc2ccccc2s1)c1ccccc1 [Mefenacet] | 10.7
Cc1cccc(Nc2ccccc2C(=O)O)c1C [Mefenamic acid] | 13.4
CC#Cc1cc(C)nc(Nc2ccccc2)n1 [Mepanipyrim] | 10.7
Cc1ccccc1C(=O)Nc1cccc(OC(C)C)c1 [Mepronil] | 10.4
